Test results as given in patent US20230085307A1, “PYRIDAZINONE COMPOUND AND HERBICIDE” (NISSAN CHEMICAL CORPORATION, priority 2019, published 2023).

Experiments:
[1] = test system: late watergrass; assay: Test Example 1: herbicidal activity, application before weed generation under submerged conditions (Table 16, symbol A); type: in vivo, late watergrass (Echinochloa oryzicola)
In short: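 Emulsion formulation, water-diluted to set dose, was put onto the flooded surface (4 cm depth, alluvial soil) the same day weeds were sown and 2.5-leaf rice transplanted. After 3 weeks at 25-30 °C under glass, each species was rated 0 (≤5% kill) to 5 (≥90% kill).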

[2] = test system: late watergrass; assay: Test Example 2: herbicidal activity, application during weed generation under submerged conditions (Table 17, symbol A); type: in vivo, late watergrass (Echinochloa oryzicola); settings: application during weed generation, submerged conditions
In short: (§1)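 In this pot test, flooded alluvial soil (water depth 4 cm) holds all three species sown as a mixture. Once seedlings have one to two leaves, the compound's emulsion, thinned with water to the intended dose, is poured on the water; grading follows after three weeks on the earlier criteria.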

[3] = test system: oval-leafed pondweed; assay: Test Example 2: herbicidal activity, application during weed generation under submerged conditions (Table 17, symbol C); type: in vivo, oval-leafed pondweed (Monochoria vaginalis); settings: application during weed generation, submerged conditions
In short: as §1

[4] = test system: barnyard grass; assay: Test Example 3: herbicidal effect by foliage application, Wagner pot (Table 18, symbol H); type: in vivo, barnyard grass (Echinochloa crus-galli)
In short: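 Plants were sown in alluvial soil held under 0.1–0.5 cm standing water and grown 14 days in a greenhouse at 25–30 °C. An emulsifiable formulation, water-diluted to the set dose, was then sprayed onto the foliage, and effects were scored three weeks later using previously defined criteria.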

[5] = test system: southern crabgrass; assay: Test Example 4: herbicidal effect by soil treatment (Table 19, symbol F); type: in vivo, southern crabgrass (Digitaria ciliaris)
In short: (§2)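 Pre-emergence style soil spray: seeds under ~1.5 cm sterilized diluvial soil received a uniform coat of emulsion diluted to the predetermined herbicide amount. Greenhouse 25–30° C; readout at week three on previously defined criteria.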

[6] = test system: barnyard grass; assay: Test Example 4: herbicidal effect by soil treatment (Table 19, symbol H); type: in vivo, barnyard grass (Echinochloa crus-galli)
In short: as §2

[7] = test system: blackgrass; assay: Test Example 4: herbicidal effect by soil treatment (Table 19, symbol J); type: in vivo, blackgrass (Alopecurus myosuroides)
In short: as §2

[8] = test system: velvetleaf; assay: Test Example 4: herbicidal effect by soil treatment (Table 19, symbol M); type: in vivo, velvetleaf (Abutilon theophrasti)
In short: as §2

[9] = test system: lambsquarters; assay: Test Example 4: herbicidal effect by soil treatment (Table 19, symbol O); type: in vivo, lambsquarters (Chenopodium album)
In short: as §2

[10] = test system: persian speedwell; assay: Test Example 4: herbicidal effect by soil treatment (Table 19, symbol R); type: in vivo, Persian speedwell (Veronica persica)
In short: as §2

[11] = test system: green foxtail; assay: Test Example 5: herbicidal effect by foliage application, plastic box (Table 20, symbol G); type: in vivo, green foxtail (Setaria viridis); settings: foliage application, three weeks after application
In short: (§3)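 Plants were sown into sterilized diluvial soil under about 1.5 cm cover and kept in a greenhouse at 25° C. to 30° C. Fourteen days on, foliage received an even spray of the diluted emulsion. Herbicidal or crop effect was judged three weeks afterwards.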

[12] = test system: barnyard grass; assay: Test Example 5: herbicidal effect by foliage application, plastic box (Table 20, symbol H); type: in vivo, barnyard grass (Echinochloa crus-galli); settings: foliage application, three weeks after application
In short: as §3

[13] = test system: blackgrass; assay: Test Example 5: herbicidal effect by foliage application, plastic box (Table 20, symbol J); type: in vivo, blackgrass (Alopecurus myosuroides); settings: foliage application, three weeks after application
In short: as §3

[14] = test system: Italian ryegrass; assay: Test Example 5: herbicidal effect by foliage application, plastic box (Table 20, symbol K); type: in vivo, Italian ryegrass (Lolium multiflorum); settings: foliage application, three weeks after application
In short: as §3

[15] = test system: velvetleaf; assay: Test Example 5: herbicidal effect by foliage application, plastic box (Table 20, symbol M); type: in vivo, velvetleaf (Abutilon theophrasti); settings: foliage application, three weeks after application
In short: as §3

[16] = amount of applied herbicide 320 g/ha
[17] = amount of applied herbicide 390 g/ha

SMILES	Herbicidal effect, A: late watergrass [1, 16]	herbicidal effect rating, A: late watergrass ([2]; AAH 320 g/ha)	herbicidal effect rating, C: oval-leafed pondweed ([3]; AAH 320 g/ha)	Herbicidal effect on H (barnyard grass), foliage application [4, 16]	F: southern crabgrass, herbicidal effect grade [5, 16]	H: barnyard grass, herbicidal effect grade [6, 16]	J: blackgrass, herbicidal effect grade [7, 16]	M: velvetleaf, herbicidal effect grade [8, 16]	O: lambsquarters, herbicidal effect grade [9, 16]	R: persian speedwell, herbicidal effect grade [10, 16]	herbicidal effect on green foxtail (G) ([11]; 320 g/ha)	herbicidal effect on barnyard grass (H) ([12]; 320 g/ha)	herbicidal effect on blackgrass (J) ([13]; 320 g/ha)	herbicidal effect on Italian ryegrass (K) ([14]; 320 g/ha)	herbicidal effect on velvetleaf (M) ([15]; 320 g/ha)	also measured
CCOc1ccccc1-c1sc2c(Cl)c(OCC)ccc2c1-c1c(O)c(C)nn(C)c1=O [7-004]	3 (Herbicidal rate of 40% or more and less than 70%)	3 (Herbicidal rate of 40% or more and less than 70%)	2 (Herbicidal rate of 20% or more and less than 40%)	5 (Herbicidal rate of 90% or more (almost completely withered))	3 (Herbicidal rate of 40% or more and less than 70%)	3 (Herbicidal rate of 40% or more and less than 70%)	0 (Herbicidal rate of 5% or less (almost no effect))	3 (Herbicidal rate of 40% or more and less than 70%)	4 (Herbicidal rate of 70% or more and less than 90%)	5 (Herbicidal rate of 90% or more (almost completely withered))	5 (Herbicidal rate of 90% or more (almost completely withered))	5 (Herbicidal rate of 90% or more (almost completely withered))	5 (Herbicidal rate of 90% or more (almost completely withered))	4 (Herbicidal rate of 70% or more and less than 90%)	4 (Herbicidal rate of 70% or more and less than 90%)	
Cc1nn(C)c(=O)c(-c2c(-c3ccc(OCC(F)(F)F)cc3)oc3ccccc23)c1O [8-005]	5 (Herbicidal rate of 90% or more (almost completely withered))	4 (Herbicidal rate of 70% or more and less than 90%)	3 (Herbicidal rate of 40% or more and less than 70%)	5 (Herbicidal rate of 90% or more (almost completely withered))	4 (Herbicidal rate of 70% or more and less than 90%)	5 (Herbicidal rate of 90% or more (almost completely withered))	3 (Herbicidal rate of 40% or more and less than 70%)	3 (Herbicidal rate of 40% or more and less than 70%)	4 (Herbicidal rate of 70% or more and less than 90%)	4 (Herbicidal rate of 70% or more and less than 90%)	5 (Herbicidal rate of 90% or more (almost completely withered))	5 (Herbicidal rate of 90% or more (almost completely withered))	4 (Herbicidal rate of 70% or more and less than 90%)	5 (Herbicidal rate of 90% or more (almost completely withered))	5 (Herbicidal rate of 90% or more (almost completely withered))	
CSCCOc1ccc(-c2oc3ccccc3c2-c2c(O)c(C)nn(C)c2=O)cc1 [8-008]	5 (Herbicidal rate of 90% or more (almost completely withered))	2 (Herbicidal rate of 20% or more and less than 40%)	2 (Herbicidal rate of 20% or more and less than 40%)	5 (Herbicidal rate of 90% or more (almost completely withered))	3 (Herbicidal rate of 40% or more and less than 70%)	5 (Herbicidal rate of 90% or more (almost completely withered))	0 (Herbicidal rate of 5% or less (almost no effect))	2 (Herbicidal rate of 20% or more and less than 40%)	4 (Herbicidal rate of 70% or more and less than 90%)	5 (Herbicidal rate of 90% or more (almost completely withered))	5 (Herbicidal rate of 90% or more (almost completely withered))	5 (Herbicidal rate of 90% or more (almost completely withered))	5 (Herbicidal rate of 90% or more (almost completely withered))	5 (Herbicidal rate of 90% or more (almost completely withered))	5 (Herbicidal rate of 90% or more (almost completely withered))	
CCCC(=O)Oc1c(C)nn(C)c(=O)c1-c1c(-c2ccc(F)cc2)oc2ccc(C)cc12 [9-005]																Herbicidal effect, A: late watergrass [1, 17]: 5 (Herbicidal rate of 90% or more (almost completely withered)); herbicidal effect rating, A: late watergrass ([2]; AAH 390 g/ha): 0 (Herbicidal rate of 5% or less (almost no effect)); herbicidal effect rating, C: oval-leafed pondweed ([3]; AAH 390 g/ha): 3 (Herbicidal rate of 40% or more and less than 70%); Herbicidal effect on H (barnyard grass), foliage application [4, 17]: 3 (Herbicidal rate of 40% or more and less than 70%); F: southern crabgrass, herbicidal effect grade [5, 17]: 0 (Herbicidal rate of 5% or less (almost no effect)); H: barnyard grass, herbicidal effect grade [6, 17]: 0 (Herbicidal rate of 5% or less (almost no effect)); J: blackgrass, herbicidal effect grade [7, 17]: 0 (Herbicidal rate of 5% or less (almost no effect)); M: velvetleaf, herbicidal effect grade [8, 17]: 0 (Herbicidal rate of 5% or less (almost no effect)); O: lambsquarters, herbicidal effect grade [9, 17]: 3 (Herbicidal rate of 40% or more and less than 70%); R: persian speedwell, herbicidal effect grade [10, 17]: 3 (Herbicidal rate of 40% or more and less than 70%); herbicidal effect on green foxtail (G) ([11]; 390 g/ha): 0 (Herbicidal rate of 5% or less (almost no effect)); herbicidal effect on barnyard grass (H) ([12]; 390 g/ha): 0 (Herbicidal rate of 5% or less (almost no effect)); herbicidal effect on blackgrass (J) ([13]; 390 g/ha): 0 (Herbicidal rate of 5% or less (almost no effect)); herbicidal effect on Italian ryegrass (K) ([14]; 390 g/ha): 4 (Herbicidal rate of 70% or more and less than 90%); herbicidal effect on velvetleaf (M) ([15]; 390 g/ha): 5 (Herbicidal rate of 90% or more (almost completely withered))
